Assay results from US12115152B2, “Pan-RAF kinase inhibitor and use thereof” (HEFEI INSTITUTES OF PHYSICAL SCIENCE, CHINESE ACADEMY OF …, priority 2019, dated 2024).

Tests used:
[1] = Effect on proliferation of cells, Cell Titer-Glo, 72 hours; type: cell-based; conditions: Mus musculus, BaF3 cells
Method in brief: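 Cells were incubated 72 h with ten compound concentrations from 0.000508 μM to 10 μM. Viable cell number was measured by ATP quantification with Cell Titer-Glo, and GI50 values were determined.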

[2] = tested on: human acute leukemia cell OCI-AML-3 (expressing NRAS-Q61L mutant kinase); assay: Effect on proliferation of cancer cells, Cell Titer-Glo, 72 hours; type: cell-based; conditions: OCI-AML-3 cells
Protocol: (§1) The compounds of the present invention were tested for their effect on growth of cancer cells (Table 2), to further evaluate the compounds herein for their inhibitory effect on proliferation of cancer cells and their selectivity in inhibiting proliferation of cancer cells.
(§2) The above-mentioned BaF3-FL-BRAF-V600E mutant cell line was constructed by the method as follows. The sequence of human full-length BRAF-V600E mutant kinase region was amplified by PCR, inserted into a MSCV-Puro vector (purchased from Clontech), and stably transfected into mouse BaF3 cells by the retroviral method, and the growth factor IL-3 was removed. Eventually, a cell line dependent on a full-length BRAF-V600E protein having various mutation transferred was obtained.
(§3) In the example, solutions of the test compound in DMSO at different concentrations (0.000508 μM, 0.00152 μM, 0.00457 μM, 0.0137 μM, 0.0411 μM, 0.123 μM, 0.370 μM, 1.11 μM, 3.33 μM, 10 μM) was added to the above cells respectively. The cells were incubated for 72 hours. The number of viable cells was detected with a Cell Titer-Glo (Promega, USA) Cell Viability Assay Kit by quantifying the ATP in viable cells. The values of GI50 (unit) of the compounds of the present invention against each of the test cells were determined.

[3] = tested on: human acute leukemia cell NB4 (expressing KRAS-A18D mutant kinase); assay: as above; type: cell-based; conditions: NB-4
Protocol: as §1, §2, §3

[4] = tested on: Calu-6, A375, BxPC3, HCT116, COLO205 cell transplanted tumors; assay: Drug efficacy in mouse transplanted tumor models; type: in vivo; conditions: mouse transplanted tumor models of cancer cells expressing KRAS, BRAF or NRAS mutations, oral daily dosing
[5] = tested on: colorectal cancer cell COLO205 (expressing BRAF-V600E mutant kinase); assay: Effect on proliferation of cancer cells, Cell Titer-Glo, 72 hours; type: cell-based; conditions: Homo sapiens, COLO 205
[6] = tested on: mouse BaF3-FL-BRAF-V600E (stably expressing full-length BRAF-V600E mutant kinase); assay: as above; type: cell-based
[7] = tested on: melanoma cell A375 (expressing BRAF-V600E mutant kinase); assay: as above; type: cell-based; conditions: Homo sapiens, A-375

Cc1ccc(NC(=O)c2cccc(C(F)(F)F)c2)cc1-n1cc(-c2cncc(N3CCOCC3)c2)cn1 [Example 16, N-(4-methyl-3-(4-(5-morpholinopyrid-3-yl)-1H-pyrazol-1-yl)phenyl)-3-(trifluoromethyl)benzamide]
GI50 [1]: > 10 µM
GI50 [2]: 0.021 µM
GI50 [3]: 0.027 µM
tumor inhibitory effect [4]: inhibitory effect superior to the control compounds

Cc1ccc(NC(=O)c2cccc(C(F)(F)F)c2)cc1-n1cc(-c2cccnc2)cn1 [compound 1, 3-trifluoromethyl-N-(4-methyl-3-(4-(pyrid-3-yl)-1H-pyrazol-1-yl)phenyl)benzamide, reference compound]
GI50 [1]: 3.3 µM
GI50 [2]: 0.02 µM
GI50 [3]: 0.083 µM
GI50 [5]: 0.15 µM
GI50 [6]: 0.017 µM
GI50 [7]: 0.085 µM
